The values that follow come from patent US5922718A, “Triazolones as apolipoprotein-B synthesis inhibitors” (Janssen Pharmaceutica, N.V., priority 1995, dated 1999).

Like-named read-outs stand apart in the source and are kept apart here.

In this test the test system is apolipoprotein B. Nature of the test: Apolipoprotein B (apo B) Inhibition Test. Particulars: HepG2-cells, overnight at 37° C., radioactively labelled leucine, double immunoprecipitation, read-out: IC50 (concentration of the drug needed to reduce apoB secretion to 50% of the control). It counts as cell-based, human. Here is the method: Cultured human liver cells (HepG2-cells), which synthesize and secrete low-density lipoproteins, were incubated overnight at 37° C. in a liquid medium containing radioactively labelled leucine. Thus radioactively labelled leucine was incorporated into the apolipoprotein B. The liquid medium was decanted and the apolipoprotein B was isolated by means of a double immunoprecipitation, i.e. first an apolipoprotein B-specific antibody (antibody1) was added to the liquid medium and subsequently a second antibody (antibody2) was added which binds specifically to the apoB-antibody1 -complex. The thus formed apoB-antibody1 -antibody2 complex precipitated and was isolated by centrifuge. Quantification of the amount of apolipoprotein B synthesized during the night resulted from measuring the radioactivity of the isolated complex. To measure the inhibiting activity of the test compound, that test compound was added to the liquid medium at different concentrations and the concentration of apolipoprotein B synthesized in the presence of a test compound (concentration apoB(after)) was compared to the concentration of apolipoprotein B which was synthesized in the absence of the test compound (concentration apoB(control)). For each experiment the inhibition of apolipoprotein-B formation was expressed as
% inhibition=100×(1-concentration of apoB(after)/concentration
When more experiments were carried out for the same concentration, the median value of the inhibition calculated for these experiments was calculated. IC50 -values (concentration of the drug needed to reduce apoB secretion to 50% of the control) were also computed.

With `CCCn1c(C)nn(-c2ccc(N3CCN(c4ccc(OC[C@H]5CO[C@](Cn6ccnc6)(c6ccc(Cl)cc6Cl)O5)cc4)CC3)cc2)c1=O` (relative stereo) [Compound 4], the IC50 (Homo sapiens) turned out to be 1000 nM.

`CC(C)n1cnn(-c2ccc(N3CCN(c4ccc(OC[C@H]5CO[C@](Cn6ccnc6)(c6ccc(Cl)cc6Cl)O5)cc4)CC3)cc2)c1=O` (relative stereo) [Compound 7]: the IC50 (Homo sapiens) came to 630 nM.

In the case of `CC(C)n1cnn(-c2ccc(N3CCN(c4ccc(OC[C@H]5CO[C@](Cn6ccnc6)(c6cccc7ccccc67)O5)cc4)CC3)cc2)c1=O` (relative stereo) [Compound 9], the IC50 (Homo sapiens) amounted to 560 nM.

For the compound `CC(C)n1cnn(-c2ccc(N3CCN(c4ccc(OC[C@H]5CO[C@](Cn6cccn6)(c6ccc(F)cc6F)O5)cc4)CC3)cc2)c1=O` (relative stereo) [Compound 10], the IC50 (Homo sapiens) is 290 nM.

Turning to `CC(C)n1cnn(-c2ccc(N3CCN(c4ccc(OC[C@H]5CO[C@](Cn6cncn6)(c6ccc(Cl)cc6Cl)O5)cc4)CC3)cc2)c1=O` (relative stereo) [Compound 17], the IC50 (Homo sapiens) was 720 nM.

With `CC(C)n1cnn(-c2ccc(N3CCN(c4ccc(OC[C@H]5CO[C@](Cn6cncn6)(c6ccc(F)cc6F)O5)cc4)CC3)cc2)c1=O` (relative stereo) [Compound 23], the IC50 (Homo sapiens) came out at 340 nM.

As for `CC(C)n1cnn(-c2ccc(N3CCN(c4ccc(OC[C@H]5CO[C@](Cn6cncn6)(c6cccc7ccccc67)O5)cc4)CC3)cc2)c1=O` (relative stereo) [Compound 24], where the note is “Homo sapiens”, the IC50 was found to be 910 nM.

Consider `CCC(C)n1cnn(-c2ccc(N3CCN(c4ccc(OC[C@H]5CO[C@](Cn6cncn6)(c6ccc(F)cc6F)O5)cc4)CC3)cc2)c1=O` (stereo partly drawn) [Compound 19, cis-2-[4-[4-[4-[[2-(2,4-difluorophenyl)-2-(1H-1,2,4-triazol-1yl-methyl)-1,3-dioxolan-4-yl]methoxy]phenyl]-1-piperazinyl]phenyl]-2,4-dihydro-4-(1-methylpropyl)-3H-1,2,4-triazol-3-one], for which, where the note is “Homo sapiens”, the IC50 stood at 170 nM.

As to `CCC(C)n1cnn(-c2ccc(N3CCN(c4ccc(OC[C@H]5CO[C@](Cn6cncn6)(c6ccc(F)cc6)O5)cc4)CC3)cc2)c1=O` (stereo partly shown) [Compound 20], the IC50 (Homo sapiens) is 860 nM.

On to `CCC(C)n1cnn(-c2ccc(N3CCN(c4ccc(OC[C@H]5CO[C@](Cn6cncn6)(c6ccc(Cl)cc6Cl)O5)cc4)CC3)cc2)c1=O` (stereo partly shown) [Compound 22], for which, for the setting “Homo sapiens”, the IC50 is 390 nM.

For the compound `CCC(C)n1cnn(-c2ccc(N3CCN(c4ccc(OCC5COC(CCn6cncn6)(c6ccc(F)cc6F)O5)cc4)CC3)cc2)c1=O` (stereo not shown) [Compound 25], the IC50 (Homo sapiens) was 230 nM.

As for `CCC(C)n1cnn(-c2ccc(N3CCN(c4ccc(OCC5COC(CCn6cncn6)(c6ccc(F)cc6F)O5)cc4)CC3)cc2)c1=O` (stereo not shown) [Compound 26], the IC50 was 300 nM.

Turning to `CCC(C)n1cnn(-c2ccc(N3CCN(c4ccc(OCC5COC(CCn6cncn6)(c6ccc(Cl)cc6)O5)cc4)CC3)cc2)c1=O` (stereo not shown) [Compound 27], the IC50 (Homo sapiens) worked out at 270 nM.
